# Data taken from the supplement of paper PMC10307832.
# Experiments:
# Assay in all cases: relative viability (nuclei count vs DMSO), 5 days (fraction); higher = more cells survive
# HCC-15 = test system: HCC-15
# How it was run: (§1)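 Values are medians from duplicate plates. Each reflects relative viability, defined as the nuclei count of treated wells over that of vehicle wells. Lung cancer cell lines in 1536-well plates were pin-tool dosed one day after seeding with one drug alone or with a fixed anchor-drug dose plus five library-drug doses (not always all listed) in √10 steps, then fixed, stained and imaged at 4× after 5 days.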
# NCI-H1915 = test system: NCI-H1915
# How it was run: as §1
# NCI-H2126 = test system: NCI-H2126
# How it was run: as §1
# EMC-BAC-2 = test system: EMC-BAC-2
# How it was run: as §1
# EKVX = test system: EKVX
# How it was run: as §1
# HCC-827 = test system: HCC-827
# How it was run: as §1
# LU99A = test system: LU99A
# How it was run: as §1
# SK-LU-1 = test system: SK-LU-1
# How it was run: as §1
# LCLC-97TM1 = test system: LCLC-97TM1
# How it was run: as §1
# NCI-H661 = test system: NCI-H661
# How it was run: as §1
# NCI-H1944 = test system: NCI-H1944
# How it was run: as §1
# ChaGo-K-1 = test system: ChaGo-K-1
# How it was run: as §1
# H3255 = test system: H3255
# How it was run: as §1
# NCI-H441 = test system: NCI-H441
# How it was run: as §1
# NCI-H1792 = test system: NCI-H1792
# How it was run: as §1
# NCI-H460 = test system: NCI-H460
# How it was run: as §1
# LC-2-ad = test system: LC-2-ad
# How it was run: as §1
# NCI-H23 = test system: NCI-H23
# How it was run: as §1
# NCI-H1437 = test system: NCI-H1437
# How it was run: as §1
# PC-3 [JPC-3] = test system: PC-3 [JPC-3]
# How it was run: as §1
# HARA = test system: HARA
# How it was run: as §1
# NCI-H322M = test system: NCI-H322M
# How it was run: as §1
structure (smiles),measurement,setting,value
Cc1cnc(-c2cnc(NCCNc3ccc(C#N)cn3)nc2-c2ccc(Cl)cc2Cl)[nH]1 + C[C@@H](Oc1cc(-c2cnn(C3CCNCC3)c2)cnc1N)c1c(Cl)ccc(F)c1Cl [Crizotinib] (partner 1 µM),relative viability,HCC-15; first compound 0.08 µM,0.781
same,relative viability,HCC-15; first compound 0.253 µM,0.659
same,relative viability,HCC-15; first compound 0.8 µM,0.799
same,relative viability,HCC-15; first compound 2.53 µM,0.803
same,relative viability,NCI-H1915; first compound 0.08 µM,0.85
same,relative viability,NCI-H1915; first compound 0.8 µM,0.896
same,relative viability,NCI-H1915; first compound 2.53 µM,0.931
same,relative viability,NCI-H2126; first compound 0.08 µM,0.996
same,relative viability,NCI-H2126; first compound 0.253 µM,1.02
same,relative viability,NCI-H2126; first compound 0.8 µM,0.968
same,relative viability,NCI-H2126; first compound 2.53 µM,1.01
same,relative viability,EMC-BAC-2; first compound 0.08 µM,0.841
same,relative viability,EMC-BAC-2; first compound 0.253 µM,0.739
same,relative viability,EMC-BAC-2; first compound 0.8 µM,0.814
same,relative viability,EMC-BAC-2; first compound 2.53 µM,0.703
same,relative viability,EKVX; first compound 0.08 µM,0.938
same,relative viability,EKVX; first compound 0.253 µM,0.823
same,relative viability,EKVX; first compound 0.8 µM,0.854
same,relative viability,EKVX; first compound 2.53 µM,0.993
same,relative viability,HCC-827; first compound 0.08 µM,0.929
same,relative viability,HCC-827; first compound 0.8 µM,0.882
same,relative viability,HCC-827; first compound 2.53 µM,0.923
same,relative viability,LU99A; first compound 0.08 µM,0.621
same,relative viability,LU99A; first compound 0.253 µM,0.459
same,relative viability,LU99A; first compound 0.8 µM,0.534
same,relative viability,LU99A; first compound 2.53 µM,0.592
same,relative viability,SK-LU-1; first compound 0.08 µM,1.01
same,relative viability,SK-LU-1; first compound 0.253 µM,0.918
same,relative viability,SK-LU-1; first compound 0.8 µM,1.17
same,relative viability,SK-LU-1; first compound 2.53 µM,1.3
same,relative viability,LCLC-97TM1; first compound 0.08 µM,0.338
same,relative viability,LCLC-97TM1; first compound 0.253 µM,0.401
same,relative viability,LCLC-97TM1; first compound 0.8 µM,0.362
same,relative viability,LCLC-97TM1; first compound 2.53 µM,0.349
same,relative viability,NCI-H661; first compound 0.08 µM,0.924
same,relative viability,NCI-H661; first compound 0.253 µM,0.941
same,relative viability,NCI-H661; first compound 0.8 µM,0.947
same,relative viability,NCI-H661; first compound 2.53 µM,0.867
same,relative viability,NCI-H1944; first compound 0.08 µM,1.11
same,relative viability,NCI-H1944; first compound 0.8 µM,1.16
same,relative viability,NCI-H1944; first compound 2.53 µM,1.1
same,relative viability,ChaGo-K-1; first compound 0.08 µM,1.17
same,relative viability,ChaGo-K-1; first compound 0.253 µM,0.999
same,relative viability,ChaGo-K-1; first compound 0.8 µM,1.06
same,relative viability,ChaGo-K-1; first compound 2.53 µM,0.989
same,relative viability,H3255; first compound 0.08 µM,1.03
same,relative viability,H3255; first compound 0.253 µM,0.809
same,relative viability,H3255; first compound 0.8 µM,0.853
same,relative viability,H3255; first compound 2.53 µM,0.79
same,relative viability,NCI-H441; first compound 0.08 µM,0.845
same,relative viability,NCI-H441; first compound 0.253 µM,0.528
same,relative viability,NCI-H441; first compound 0.8 µM,0.713
same,relative viability,NCI-H441; first compound 2.53 µM,0.791
same,relative viability,NCI-H1792; first compound 0.08 µM,0.975
same,relative viability,NCI-H1792; first compound 0.253 µM,0.803
same,relative viability,NCI-H1792; first compound 0.8 µM,0.947
same,relative viability,NCI-H1792; first compound 2.53 µM,0.936
same,relative viability,NCI-H460; first compound 0.08 µM,1.03
same,relative viability,NCI-H460; first compound 0.253 µM,0.857
same,relative viability,NCI-H460; first compound 0.8 µM,0.858
same,relative viability,NCI-H460; first compound 2.53 µM,0.776
same,relative viability,LC-2-ad; first compound 0.08 µM,0.489
same,relative viability,LC-2-ad; first compound 2.53 µM,0.426
same,relative viability,NCI-H23; first compound 0.08 µM,0.676
same,relative viability,NCI-H23; first compound 0.253 µM,0.496
same,relative viability,NCI-H23; first compound 0.8 µM,0.638
same,relative viability,NCI-H23; first compound 2.53 µM,0.621
same,relative viability,NCI-H1437; first compound 0.08 µM,0.912
same,relative viability,NCI-H1437; first compound 0.253 µM,0.943
same,relative viability,NCI-H1437; first compound 0.8 µM,0.944
same,relative viability,NCI-H1437; first compound 2.53 µM,0.981
same,relative viability,PC-3 [JPC-3]; first compound 0.08 µM,0.936
same,relative viability,PC-3 [JPC-3]; first compound 0.253 µM,0.894
same,relative viability,PC-3 [JPC-3]; first compound 0.8 µM,0.999
same,relative viability,PC-3 [JPC-3]; first compound 2.53 µM,0.953
same,relative viability,HARA; first compound 0.08 µM,1.02
same,relative viability,HARA; first compound 0.253 µM,0.956
same,relative viability,HARA; first compound 0.8 µM,1.06
same,relative viability,HARA; first compound 2.53 µM,1.12
same,relative viability,NCI-H322M; first compound 0.08 µM,0.925
same,relative viability,NCI-H322M; first compound 0.253 µM,0.81
same,relative viability,NCI-H322M; first compound 0.8 µM,0.821
same,relative viability,NCI-H322M; first compound 2.53 µM,0.858
